Data from PubChem BioAssay AID1648 (Sanford-Burnham Center for Chemical Genomics, 2009).
Calls of active or inactive are those of the source. How the calls were made is not given here.

Target: Serine/threonine-protein kinase mTOR (Homo sapiens) (UniProt P42345)
Test: binders of mTOR FRB domain, biophysical, NMR (AID 1648)
Settings: NMR binding to FRB domain, chemical shift

Serine/threonine-protein kinase mTOR (Homo sapiens), sequence (P42345 2015-2114): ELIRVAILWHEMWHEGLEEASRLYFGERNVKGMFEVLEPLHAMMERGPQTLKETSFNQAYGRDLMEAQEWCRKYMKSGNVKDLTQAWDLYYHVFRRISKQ

| SMILES | Kd |
| --- | --- |
| Cc1cc(C)c(NC(=O)CN2CCC(O)CC2)c(C)c1 | > 4 mM (inactive) |
| COc1c(OC)c2occc2c2oc(=O)ccc12 | > 4 mM (inactive) |
| Cc1cc(=O)[nH]c(NCC(=O)O)n1 | > 4 mM (inactive) |
| Cc1ccccc1N1C(=O)CC(=O)NC1=O | > 4 mM (inactive) |
| O=C(NCc1ccccn1)c1ccc(Br)s1 | > 4 mM (inactive) |
| Cc1occc1C(=O)Nc1nnc(-c2ccncc2)s1 | > 4 mM (inactive) |
| CN1CCCCC1c1ccc(-c2cccnc2)nc1 (centres undefined) | > 4 mM (inactive) |
| CC(=O)O[C@]1(C)CC[C@@]23CC1C(C)(C)[C@@H]2CC[C@H]3C | > 4 mM (inactive) |
| CC1CCN(C(=O)c2cc3ccccc3o2)CC1 | > 4 mM (inactive) |
| CC(C)(OC(=O)c1ccccc1)[C@@H]1Cc2cc3ccc(=O)oc3cc2O1 | > 4 mM (inactive) |
| C=CC(C1=CC(=O)C(OC)=CC1=O)c1ccc(O)cc1 (centres undefined) | > 4 mM (inactive) |
| CC(C)Oc1ccc(C2CC(=O)NNC2=O)cc1 (centres undefined) | > 4 mM (inactive) |
| Cc1cc(C)n2nc(Cc3ccccc3)nc2n1 | > 4 mM (inactive) |
| COc1ccc2c(c1)OCC(Cc1ccc(OC)c(O)c1)C2=O (centres undefined) | > 4 mM (inactive) |
| c1ccc(-c2noc(-c3ccc4c(c3)OCO4)n2)nc1 | > 4 mM (inactive) |
| O=C(CSc1ccnc(=O)[nH]1)NCc1ccco1 | > 4 mM (inactive) |
| Cc1c(C)[n+]([O-])c(-c2ccc([N+](=O)[O-])cc2)n1O | > 4 mM (inactive) |
| CC(=O)O[C@H]1CC[C@@]2(C)C(=CC(=O)C3C4CCC(C(C)CCCC(C)C)[C@@]4(C)CCC32)C1 (some centres undefined) | > 4 mM (inactive) |
| COC1C=CC23c4cc5c(cc4CN(CC2O)[C@@H]3C1)OCO5 (some centres undefined) | > 4 mM (inactive) |
| OCc1ccc(N2CCOCC2)nc1 | > 4 mM (inactive) |
| Oc1cc(O)c2c(c1)O[C@H](c1ccc(O)c(O)c1)[C@H](O)C2 | > 4 mM (inactive) |
| O=c1[nH]cnc2nn(-c3ccccc3)nc12 | > 4 mM (inactive) |
| O=C(O)C1CN(Cc2ccccc2)CCO1 (centres undefined) | > 4 mM (inactive) |
| Cc1nn(C)c(Cl)c1S(=O)(=O)N1CCOCC1 | > 4 mM (inactive) |

| SMILES | Kd |
| --- | --- |
| O=C(O)c1ccc(Nc2nncc(=O)[nH]2)cc1 | > 4 mM (inactive) |
| NC1=C([N+](=O)[O-])C(=O)c2ccccc21 | > 4 mM (inactive) |
| Cn1[nH]c(C(F)(F)F)cc1=O | > 4 mM (inactive) |
| Nc1nc(-c2ccccc2)cc(=O)[nH]1 | > 4 mM (inactive) |
| O=C(O)c1ccc(CN2CCCCC2)o1 | > 4 mM (inactive) |
| Cc1scc(C(=O)Nn2cnnc2)c1-c1ccccc1 | > 4 mM (inactive) |
| CC(=O)Nc1ccc(S(=O)(=O)NC2=NCCS2)cc1 | > 4 mM (inactive) |
| O=C(c1ccco1)N1CCN(Cc2cccc(F)c2)CC1 | > 4 mM (inactive) |
| NC(=O)c1cc(Cl)c(C(N)=O)cc1Cl | > 4 mM (inactive) |
| Nc1cccc(OC(F)(F)F)c1 | > 4 mM (inactive) |
| O=C(CN1C(=O)CCC1=O)c1ccccc1 | > 4 mM (inactive) |
| CN1CCC(NC(=S)NC2CC2)CC1 | > 4 mM (inactive) |
| COCc1cc(=O)oc2cc(N)ccc12 | > 4 mM (inactive) |
| CSc1nsc(SCc2cnc(C)nc2N)n1 | > 4 mM (inactive) |
| O=C(NC1CSCC1O)c1ccccc1 (centres undefined) | > 4 mM (inactive) |
| O=c1[nH]nc(Cc2ccccn2)c2ccccc12 | > 4 mM (inactive) |
| Cc1noc(C)c1C(=O)NCc1cccs1 | > 4 mM (inactive) |
| CCS(=O)(=O)N1CCN(c2ccccc2F)CC1 | > 4 mM (inactive) |
| O=c1c(-c2ccco2)[n+]([O-])c2ccccc2n1O | > 4 mM (inactive) |
| NC(=O)CC1Sc2ccccc2NC1=O (centres undefined) | > 4 mM (inactive) |
| CCC1(CC)C(=O)NC(=O)N=C1N | > 4 mM (inactive) |
| NCc1cc2ccccc2s1 | > 4 mM (inactive) |
| NC(=O)c1cn(-c2ccccc2)nc1-c1cccnc1 | > 4 mM (inactive) |
| O=C(Nc1ccc(O)cc1)N1CCOCC1 | > 4 mM (inactive) |

| SMILES | Kd |
| --- | --- |
| Nc1cc(=O)[nH]c(=O)n1Cc1ccco1 | > 4 mM (inactive) |
| COc1cc(/C=C2/NC(=S)NC2=O)cc(Cl)c1O | > 4 mM (inactive) |
| COc1cc2c(cc1OC)C1Cc3ccc(OC)c(OC)c3CN1CC2 (centres undefined) | > 4 mM (inactive) |
| O=C(O)C1CCCN1Cc1c[nH]c2ccccc12 (centres undefined) | > 4 mM (inactive) |
| O=c1c(O)c(-c2ccc(O)cc2O)oc2cc(O)cc(O)c12 | > 4 mM (inactive) |
| CCn1c(C)c(C(C)=O)c(N2CCN(C)CC2)nc1=S | > 4 mM (inactive) |
| C=CCN1CC[C@]23c4c5ccc(O)c4OC2C(=O)CC[C@@]3(O)[C@H]1C5 (some centres undefined) | > 4 mM (inactive) |
| O=C(c1ccccc1)c1cncc(Br)c1 | > 4 mM (inactive) |
| O=S(=O)(Cc1ccccc1)N1CCCCCC1 | > 4 mM (inactive) |
| c1n[nH]cc1-c1cn[nH]c1 | > 4 mM (inactive) |
| COc1ccc(NC(=O)c2ccc[n+]([O-])c2)cc1 | > 4 mM (inactive) |
| COc1cc(C(=O)NCC2CCCO2)cc(OC)c1OC (centres undefined) | > 4 mM (inactive) |
| O=C(NCc1cccs1)c1ccc2c(c1)OCCO2 | > 4 mM (inactive) |
| CC(CO)NC(=O)C1C=C2c3cccc4[nH]cc(c34)C[C@H]2N(C)C1 (some centres undefined) | > 4 mM (inactive) |
| O=C1C2CCCCC2C(=O)N1c1ccc(O)cc1 (centres undefined) | > 4 mM (inactive) |
| NCCNC(=S)Nc1ccccc1 | > 4 mM (inactive) |
| COCc1cc(C)nc2sc(C(=O)OC)c(N)c12 | > 4 mM (inactive) |
| CC(C)=CC(=O)Nc1ccc(S(N)(=O)=O)cc1 | > 4 mM (inactive) |
| CON(C)C(=O)Nc1ccc(Cl)cc1 | > 4 mM (inactive) |
| O=C(NCC1CCNCC1)c1ccccn1 | > 4 mM (inactive) |
| O=C(O)c1ccc(N2CCOCC2)cc1 | > 4 mM (inactive) |
| NC(=O)c1cccc2c1OCCO2 | > 4 mM (inactive) |
| O=c1[nH]c2ccccc2c(=O)n1CCCO | > 4 mM (inactive) |
| COc1ccccc1-c1n[nH]c(=O)o1 | > 4 mM (inactive) |

| SMILES | Kd |
| --- | --- |
| CC(=O)Nc1sccc1C(N)=O | > 4 mM (inactive) |
| Cc1cc2nc(SCC(=O)O)nc(C)c2cc1C | > 4 mM (inactive) |
| COc1ccccc1C(=O)Nc1ccccn1 | > 4 mM (inactive) |
| Cc1nc(N2CCOCC2)[nH]c(=O)c1C | > 4 mM (inactive) |
| CCC(/C=C/[C@@H](C)[C@H]1CCC2C3CC=C4C[C@@H](O)CC[C@]4(C)C3CC[C@@]21C)C(C)C (some centres undefined) | > 4 mM (inactive) |
| CC1(C)C(=O)C=C[C@@]2(C)C1C[C@@H](O)[C@]1(C)C2CC[C@@]2(C)[C@H](c3ccoc3)OC(=O)[C@H]3O[C@]321 (some centres undefined) | > 4 mM (inactive) |
| CCOC(=O)c1csc(C)n1 | > 4 mM (inactive) |
| NC1=NC(=O)/C(=C/c2ccc(O)c(Cl)c2)S1 | > 4 mM (inactive) |
| COc1cc2c3cc1Oc1c(OC)c(OC)cc4c1[C@@H](Cc1cccc(c1)Oc1ccc(c(O)c1)C[C@@H]3N(C)CC2)N(C)CC4 | > 4 mM (inactive) |
| Cc1cc(NC(=O)Cc2c(F)cccc2Cl)no1 | > 4 mM (inactive) |
| OCc1c[nH]c2ccccc12 | > 4 mM (inactive) |
| CC(=O)NC(C)(C)C1CC=C(C)/C(=N\O)C1 (centres undefined) | > 4 mM (inactive) |
| O=c1[nH]c2ccc(S(=O)(=O)NC3CC3)cc2[nH]1 | > 4 mM (inactive) |
| O=C(O)c1cccc(CSc2ncccn2)c1 | > 4 mM (inactive) |
| CC(=O)Nc1ccc(NC(=O)c2ccnn2C)cc1 | > 4 mM (inactive) |
| O=C(O)c1ccc2c(c1)OCCCO2 | > 4 mM (inactive) |
| Oc1ccc(C(=S)N2CCCCC2)cc1Cl | > 4 mM (inactive) |
| COc1ccc(S(=O)(=O)N2CCC(C(N)=O)CC2)cc1 | > 4 mM (inactive) |
| OCc1ccc2ncccc2c1 | > 4 mM (inactive) |
| CC(C)NC(=S)NCc1cnn(C)c1 | > 4 mM (inactive) |
| CS(=O)(=O)Nc1ccc(C(=O)N2CCCCC2)cc1 | > 4 mM (inactive) |
| Cc1noc(C)c1C(=O)Nc1cccnc1 | > 4 mM (inactive) |
| NC(=S)N1CCC(c2ccccc2)=N1 | > 4 mM (inactive) |
| O=C(c1nc2ccccc2s1)N1CCSCC1 | > 4 mM (inactive) |

| SMILES | Kd |
| --- | --- |
| O=C(Nc1ccncc1)c1cncc(Br)c1 | > 4 mM (inactive) |
| CC1(C)C=Cc2c(cc3occ(-c4ccc5c(c4)OCO5)c(=O)c3c2O)O1 | > 4 mM (inactive) |
| CCOC(=O)C1CCN(Cc2ccccc2)CC1=O (centres undefined) | > 4 mM (inactive) |
| C=CCn1c(-c2ccc(O)cc2)n[nH]c1=S | > 4 mM (inactive) |
| C[C@H]1[C@H](C)CC[C@]2(CO)CC[C@]3(C)C(=CCC4[C@@]5(C)CC[C@H](O)C(C)(C)C5CC[C@]43C)[C@H]12 (some centres undefined) | > 4 mM (inactive) |
| COc1cc2occc2c2oc(=O)ccc12 | > 4 mM (inactive) |
| NC(=O)C1CCN(C(=S)c2ccccc2)CC1 | > 4 mM (inactive) |
| NC(=O)CC(=O)NC12CC3CC(CC(C3)C1)C2 | > 4 mM (inactive) |
| COc1cc2c(cc1OC)C(C)NCC2 (centres undefined) | > 4 mM (inactive) |
| CSc1ccccc1NC(=O)c1ccoc1C | > 4 mM (inactive) |
| Nc1ccc(S(=O)(=O)N2CCOCC2)cc1 | > 4 mM (inactive) |
| O=c1[nH]nnc2sc3c(c12)CCCC3 | > 4 mM (inactive) |
| COc1cc(C(=S)N2CCOCC2)ccc1O | > 4 mM (inactive) |
| NCc1ccccc1N1CCOCC1 | > 4 mM (inactive) |
| O=C1CC(C(=O)O)c2ccccc21 (centres undefined) | > 4 mM (inactive) |
| CN(C)C(=S)Nc1ccccc1N1CCOCC1 | > 4 mM (inactive) |
| CN1C(=O)C2C=CC1C1C(=O)N(c3ccccc3)C(=O)C21 (centres undefined) | > 4 mM (inactive) |
| Nc1nc2ccc(C(=O)O)cc2s1 | > 4 mM (inactive) |
| CC(=O)O[C@H]1C[C@@H](OC(C)=O)C(C)(C)C2CC(=O)[C@]3(C)C(CC[C@@]4(C)[C@H](c5ccoc5)OC(=O)[C@H]5O[C@]543)[C@]21C (some centres undefined) | > 4 mM (inactive) |
| Cc1nc(-c2ccccc2)ncc1C(=O)O | > 4 mM (inactive) |
| COC(=O)C1=C(C)N(Cc2ccco2)C(=O)C1 | > 4 mM (inactive) |
| O=C(CN1C(=O)c2cccc3cccc(c23)C1=O)NO | > 4 mM (inactive) |
| O=C(NCCCSc1ncccn1)Nc1ncccn1 | > 4 mM (inactive) |
